# Test results: patent publication US7138361B2, “Herbicidal heterocycles” (E. I. du Pont de Nemours and Company, priority 2000, dated 2006)
# Columns and labels:
# Type in all cases: in vivo
# [1] = system: Surinam grass (Brachiaria decumbens); test: Test B postemergence; conditions: 13 to 15 days
# Method in brief: (§1)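 Pre: seeded pots sprayed, chemical in non-phytotoxic solvent/surfactant mix. Post: plants 2–18 cm, 1–4 leaf, same formulation. Greenhouse 13–15 d; visual % control vs untreated, 0–100 scale.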
# [2] = system: barnyardgrass (Echinochloa crus-galli); test: Test B postemergence; conditions: 13 to 15 days
# Method in brief: as §1
# [3] = system: blackgrass (Alopecurus myosuroides); test: Test B postemergence; conditions: 13 to 15 days
# Method in brief: as §1
# [4] = system: cocklebur (Xanthium strumarium); test: Test B postemergence; conditions: 13 to 15 days
# Method in brief: as §1
# [5] = system: corn (Zea mays); test: Test B postemergence; conditions: 13 to 15 days
# Method in brief: as §1
# [6] = system: crabgrass (Digitaria sanguinalis); test: Test B postemergence; conditions: 13 to 15 days
# Method in brief: as §1
# [7] = system: giant foxtail (Setaria faberii); test: Test B postemergence; conditions: 13 to 15 days
# Method in brief: as §1
# [8] = system: lambsquarters (Chenopodium album); test: Test B postemergence; conditions: 13 to 15 days
# Method in brief: as §1
# [9] = system: morning glory (Ipomoea hederacea); test: Test B postemergence; conditions: 13 to 15 days
# Method in brief: as §1
# [10] = system: pigweed (Amaranthus retroflexus); test: Test B postemergence; conditions: 13 to 15 days
# Method in brief: as §1
# [11] = system: velvetleaf (Abutilon theophrasti); test: Test B postemergence; conditions: 13 to 15 days
# Method in brief: as §1
# [12] = system: wheat (Triticum aestivum); test: Test B postemergence; conditions: 13 to 15 days
# Method in brief: as §1
# [13] = system: wild oat (Avena fatua); test: Test B postemergence; conditions: 13 to 15 days
# Method in brief: as §1
# [14] = system: Surinam grass (Brachiaria decumbens); test: Test B preemergence
# Method in brief: as §1
# [15] = system: barnyardgrass (Echinochloa crus-galli); test: Test B preemergence
# Method in brief: as §1
# [16] = system: cocklebur (Xanthium strumarium); test: Test B preemergence
# Method in brief: as §1
# [17] = system: corn (Zea mays); test: Test B preemergence
# Method in brief: as §1
# [18] = system: crabgrass (Digitaria sanguinalis); test: Test B preemergence
# Method in brief: as §1
# [19] = system: giant foxtail (Setaria faberii); test: Test B preemergence
# Method in brief: as §1
# [20] = system: lambsquarters (Chenopodium album); test: Test B preemergence; conditions: scale 0 to 100, 0 no effect, 100 complete control
# Method in brief: as §1
# [21] = system: morning glory (Ipomoea hederacea); test: Test B preemergence
# Method in brief: as §1
# [22] = system: pigweed (Amaranthus retroflexus); test: Test B preemergence
# Method in brief: as §1
# [23] = system: rice (Oryza saliva); test: Test B preemergence
# Method in brief: as §1
# [24] = system: barnyardgrass (Echinochloa crus-galli); test: Test B flooded paddy test; conditions: Rate 1000 g/ha, scale of 0 to 100 where 0 is no effect and 100 is complete control, visually evaluated after 13 to 15 days
# Procedure: (§2) At the same time, plants selected from these crop and weed species and also blackgrass (Alopecurus myosuroides), wheat (Triticum aestivum) and wild oat (Avena fatua) were treated with postemergence applications of test chemicals formulated in the same manner. Plants ranged in height from 2 to 18 cm (1- to 4-leaf stage) for postemergence treatments. Plant species in the flooded paddy test consisted of rice (Oryza saliva), smallflower flatsedge (Cyperus difformis), duck salad (Heteranthera limosa) and barnyardgrass (Echinochloa crus-galli) grown to the 2-leaf stage for testing. Treated plants and controls were maintained in a greenhouse for 13 to 15 days, after which time all species were compared to controls and visually evaluated. Plant response ratings, summarized in Table B, are based on a scale of 0 to 100 where 0 is no effect and 100 is complete control. A dash (-) response means no test result.
# [25] = system: duck salad (Heteranthera limosa); test: Test B flooded paddy test; conditions: Rate 1000 g/ha, scale of 0 to 100 where 0 is no effect and 100 is complete control, visually evaluated after 13 to 15 days
# Procedure: as §2
# [26] = system: rice (Oryza saliva); test: Test B flooded paddy test; conditions: Rate 1000 g/ha, scale of 0 to 100 where 0 is no effect and 100 is complete control, visually evaluated after 13 to 15 days
# Procedure: as §2
# [27] = system: smallflower flatsedge (Cyperus difformis); test: Test B flooded paddy test; conditions: Rate 1000 g/ha, scale of 0 to 100 where 0 is no effect and 100 is complete control, visually evaluated after 13 to 15 days
# Procedure: as §2
# [28] = system: velvetleaf (Abutilon theophrasti); test: Test B preemergence
# Method in brief: as §1
# [29] = Rate 125 g/ha, scale 0 (no effect) to 100 (complete control)
# [30] = Rate 500 g/ha, scale 0 to 100, 0 is no effect, 100 is complete control
# [31] = Preemergence, Rate 500 g/ha, scale 0 to 100, 0 no effect, 100 complete control
# [32] = preemergence, Rate 125 g/ha, scale 0 to 100, 0 no effect, 100 complete control
# [33] = preemergence, Rate 125 g/ha, scale of 0 to 100 where 0 is no effect and 100 is complete control, 13 to 15 days
structure (smiles),measurement,setting,value
O=C1C(n2cccn2)SCN1c1cccc(C(F)(F)F)c1 (stereo not drawn) [Compound 18],"Plant response rating, Surinam grass",[1]; [29],0
same,"Plant response rating, Surinam grass",[1]; [30],0
same,"Plant response rating, Barnyardgrass",[2]; [29],0
same,"Plant response rating, Barnyardgrass",[2]; [30],0
same,"Plant response rating, Blackgrass",[3]; [29],0
same,"Plant response rating, Blackgrass",[3]; [30],0
same,"Plant response rating, Cocklebur",[4]; [29],0
same,"Plant response rating, Cocklebur",[4]; [30],20
same,"Plant response rating, Corn",[5]; [29],0
same,"Plant response rating, Corn",[5]; [30],0
same,"Plant response rating, Crabgrass",[6]; [29],0
same,"Plant response rating, Crabgrass",[6]; [30],0
same,"Plant response rating, Foxtail, Giant",[7]; [29],0
same,"Plant response rating, Foxtail, Giant",[7]; [30],0
same,"Plant response rating, Lambsquarters",[8]; [29],60
same,"Plant response rating, Lambsquarters",[8]; [30],70
same,"Plant response rating, Morningglory",[9]; [29],10
same,"Plant response rating, Morningglory",[9]; [30],10
same,"Plant response rating, Pigweed",[10]; [29],0
same,"Plant response rating, Pigweed",[10]; [30],0
same,"Plant response rating, Velvetleaf",[11]; [29],0
same,"Plant response rating, Velvetleaf",[11]; [30],20
same,"Plant response rating, Wheat",[12]; [29],0
same,"Plant response rating, Wheat",[12]; [30],0
same,"Plant response rating, Wild Oat",[13]; [29],0
same,"Plant response rating, Wild Oat",[13]; [30],0
same,"Plant response rating, Surinam grass",[14]; [31],0
same,"Plant response rating, Surinam grass",[14]; [32],0
same,"Plant response rating, Barnyardgrass",[15]; [31],0
same,"Plant response rating, Barnyardgrass",[15]; [32],0
same,"Plant response rating, Cocklebur",[16]; [31],0
same,"Plant response rating, Cocklebur",[16]; [32],0
same,"Plant response rating, Corn",[17]; [31],0
same,"Plant response rating, Corn",[17]; [32],0
same,"Plant response rating, Crabgrass",[18]; [31],0
same,"Plant response rating, Crabgrass",[18]; [32],0
same,"Plant response rating, Foxtail, Giant",[19]; [31],0
same,"Plant response rating, Foxtail, Giant",[19]; [32],0
same,"Plant response rating, Lambsquarters","[20]; preemergence, Rate 125 g/ha",0
same,"Plant response rating, Morningglory",[21]; [31],0
same,"Plant response rating, Morningglory",[21]; [32],0
same,"Plant response rating, Pigweed",[22]; [31],0
same,"Plant response rating, Pigweed",[22]; [32],0
same,"Plant response rating, Rice",[23]; [31],0
same,"Plant response rating, Rice",[23]; [32],0
same,"Plant response rating, Barnyardgrass",[24],0
same,"Plant response rating, Ducksalad",[25],0
same,"Plant response rating, Rice",[26],0
same,"Plant response rating, Flatsedge",[27],0
CC(C)(C)c1ccn(C2C(=O)N(c3cccc(C(F)(F)F)c3)C[S+]2[O-])n1 (stereo not drawn) [Compound 29],"Plant response rating, Surinam grass",[1]; [29],0
same,"Plant response rating, Surinam grass",[1]; [30],0
same,"Plant response rating, Barnyardgrass",[2]; [29],0
same,"Plant response rating, Barnyardgrass",[2]; [30],0
same,"Plant response rating, Blackgrass",[3]; [29],0
same,"Plant response rating, Blackgrass",[3]; [30],0
same,"Plant response rating, Cocklebur",[4]; [29],0
same,"Plant response rating, Cocklebur",[4]; [30],0
same,"Plant response rating, Corn",[5]; [29],0
same,"Plant response rating, Corn",[5]; [30],0
same,"Plant response rating, Crabgrass",[6]; [29],0
same,"Plant response rating, Crabgrass",[6]; [30],50
same,"Plant response rating, Foxtail, Giant",[7]; [29],0
same,"Plant response rating, Foxtail, Giant",[7]; [30],0
same,"Plant response rating, Lambsquarters",[8]; [29],0
same,"Plant response rating, Lambsquarters",[8]; [30],20
same,"Plant response rating, Morningglory",[9]; [29],0
same,"Plant response rating, Morningglory",[9]; [30],0
same,"Plant response rating, Pigweed",[10]; [29],30
same,"Plant response rating, Pigweed",[10]; [30],30
same,"Plant response rating, Velvetleaf",[11]; [29],0
same,"Plant response rating, Velvetleaf",[11]; [30],20
same,"Plant response rating, Wheat",[12]; [29],0
same,"Plant response rating, Wheat",[12]; [30],0
same,"Plant response rating, Wild Oat",[13]; [29],0
same,"Plant response rating, Wild Oat",[13]; [30],0
same,"Plant response rating, Surinam grass",[14]; [31],0
same,"Plant response rating, Surinam grass",[14]; [32],0
same,"Plant response rating, Barnyardgrass",[15]; [31],20
same,"Plant response rating, Barnyardgrass",[15]; [32],0
same,"Plant response rating, Cocklebur",[16]; [31],0
same,"Plant response rating, Cocklebur",[16]; [32],0
same,"Plant response rating, Corn",[17]; [31],0
same,"Plant response rating, Corn",[17]; [32],0
same,"Plant response rating, Crabgrass",[18]; [31],0
same,"Plant response rating, Crabgrass",[18]; [32],0
same,"Plant response rating, Foxtail, Giant",[19]; [31],0
same,"Plant response rating, Foxtail, Giant",[19]; [32],0
same,"Plant response rating, Lambsquarters","[20]; Preemergence, Rate 500 g/ha",100
same,"Plant response rating, Lambsquarters","[20]; preemergence, Rate 125 g/ha",0
same,"Plant response rating, Morningglory",[21]; [31],30
same,"Plant response rating, Pigweed",[22]; [31],70
same,"Plant response rating, Rice",[23]; [31],0
same,"Plant response rating, Velvetleaf",[28]; [31],20
same,"Plant response rating, Barnyardgrass",[24],0
same,"Plant response rating, Ducksalad",[25],0
same,"Plant response rating, Rice",[26],0
same,"Plant response rating, Flatsedge",[27],30
CCOc1ccn(C2CCN(c3cccc(C(F)(F)F)c3)C2=O)n1 (stereo not drawn) [Compound 61],"Plant response rating, Surinam grass",[1]; [29],0
same,"Plant response rating, Surinam grass",[1]; [30],0
same,"Plant response rating, Barnyardgrass",[2]; [29],0
same,"Plant response rating, Barnyardgrass",[2]; [30],0
same,"Plant response rating, Blackgrass",[3]; [29],0
same,"Plant response rating, Blackgrass",[3]; [30],0
same,"Plant response rating, Cocklebur",[4]; [29],0
same,"Plant response rating, Cocklebur",[4]; [30],0
same,"Plant response rating, Corn",[5]; [29],0
same,"Plant response rating, Corn",[5]; [30],0
same,"Plant response rating, Crabgrass",[6]; [29],0
same,"Plant response rating, Crabgrass",[6]; [30],0
same,"Plant response rating, Foxtail, Giant",[7]; [29],0
same,"Plant response rating, Foxtail, Giant",[7]; [30],0
same,"Plant response rating, Lambsquarters",[8]; [29],0
same,"Plant response rating, Lambsquarters",[8]; [30],0
same,"Plant response rating, Morningglory",[9]; [29],0
same,"Plant response rating, Morningglory",[9]; [30],0
same,"Plant response rating, Pigweed",[10]; [29],0
same,"Plant response rating, Pigweed",[10]; [30],0
same,"Plant response rating, Velvetleaf",[11]; [29],0
same,"Plant response rating, Velvetleaf",[11]; [30],0
same,"Plant response rating, Wheat",[12]; [29],0
same,"Plant response rating, Wheat",[12]; [30],0
same,"Plant response rating, Wild Oat",[13]; [29],0
same,"Plant response rating, Wild Oat",[13]; [30],0
same,"Plant response rating, Surinam grass",[14]; [31],0
same,"Plant response rating, Surinam grass",[14]; [33],0
same,"Plant response rating, Barnyardgrass",[15]; [31],0
same,"Plant response rating, Barnyardgrass",[15]; [33],0
same,"Plant response rating, Cocklebur",[16]; [31],0
same,"Plant response rating, Cocklebur",[16]; [33],0
same,"Plant response rating, Corn",[17]; [31],0
same,"Plant response rating, Corn",[17]; [33],0
same,"Plant response rating, Crabgrass",[18]; [31],0
same,"Plant response rating, Crabgrass",[18]; [33],0
same,"Plant response rating, Foxtail, Giant",[19]; [31],0
same,"Plant response rating, Foxtail, Giant",[19]; [33],0
same,"Plant response rating, Morningglory",[21]; [31],0
same,"Plant response rating, Morningglory",[21]; [33],0
same,"Plant response rating, Pigweed",[22]; [31],0
same,"Plant response rating, Pigweed",[22]; [33],0
same,"Plant response rating, Rice",[23]; [31],0
same,"Plant response rating, Rice",[23]; [33],0
same,"Plant response rating, Velvetleaf",[28]; [31],0
same,"Plant response rating, Velvetleaf",[28]; [33],0
same,"Plant response rating, Barnyardgrass",[24],0
same,"Plant response rating, Ducksalad",[25],30
same,"Plant response rating, Rice",[26],0
same,"Plant response rating, Flatsedge",[27],20
